Data on 4 molecules can be found in ChEMBL document CHEMBL1201862, “PubChem BioAssay data set” (2004).

Test systems include HOP-62; SK-OV-3; SF-539; NCI-H226; COLO 205; LOX IMVI; UACC-62; BT-549; SNB-75; T47D; HCT-15; OVCAR-3; CCRF-CEM; NCI-H522; UO-31; SR; MDA-MB-231; Malme-3M; EKVX.
What all share (assay): growth of human tumour cells (NCI), 48 h

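Growth conditions: 96-well plates. Treatment: test compound, 48 hours, 5 concentrations. Analysis: linear interpolation between bracketing concentrations; unreached endpoints set to highest concentration. GI50 marks 50% less growth.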 The source made the active and inactive calls. Rule as the data show it: active = GI50 up to about 1.1 µM and inactive = higher.

In the case of `CNC(=O)N(CCC#N)[C@H]1CCCC[C@@H]1N(C(=O)NC)c1ccccc1`, the GI50 with HOP-62, in the experiment on SK-OV-3, with SF-539, in the experiment on NCI-H226, in the experiment on COLO 205 and with LOX IMVI was > 100 µM (inactive) in each case. Moreover, the GI50 with UACC-62 is > 100 µM (inactive); in the experiment with BT-549, > 100 µM (inactive); in the experiment on SNB-75 it was > 100 µM (inactive); in the experiment on T47D, > 100 µM (inactive); in the experiment with HCT-15, above 100 µM; in the experiment with OVCAR-3, > 100 µM (inactive). The GI50 in the experiment on CCRF-CEM, in the experiment on NCI-H522, in the experiment with UO-31, in the experiment with SR, in the experiment with MDA-MB-231 and with Malme-3M was > 100 µM (inactive) each time. For the same molecule, the GI50 with EKVX is > 100 µM (inactive).

With `C/C(=C\CO)CC/C=C(\C)CNc1ccccc1`, the GI50 in the experiment on HOP-62 was > 100 µM (inactive); in the experiment on SK-OV-3, > 100 µM (inactive); in the experiment with SF-539, 82.6 µM (inactive); with NCI-H226, 36.9 µM (inactive); with COLO 205, 41.2 µM (inactive); in the experiment on LOX IMVI, 57.7 µM (inactive). Also, the GI50 in the experiment on UACC-62 is 36.1 µM (inactive); in the experiment with BT-549, 18.6 µM (inactive); in the experiment on SNB-75, 0.0498 µM (active); in the experiment on T47D, 14.7 µM (inactive); with HCT-15 it was 67.8 µM; in the experiment on OVCAR-3, 18.2 µM (inactive). The GI50 in the experiment with NCI-H522 is 23.2 µM (inactive); with UO-31, 38.1 µM (inactive); with SR, 34.3 µM (inactive); in the experiment on MDA-MB-231 it was 34.8 µM (inactive); in the experiment with Malme-3M, 13.5 µM (inactive); in the experiment on EKVX, 23.9 µM (inactive).

In the case of `CC(=O)NN(c1ccccc1)C1CCN(c2ccccc2)N1C(C)=O` (centres undefined), the GI50 in the experiment on HOP-62 was > 10 µM (inactive); with SK-OV-3, > 10 µM (inactive); in the experiment with SF-539 it was 4.85 µM (inactive); in the experiment on NCI-H226, > 10 µM (inactive); with COLO 205 it was 3.13 µM (inactive); with LOX IMVI, 4.58 µM (inactive). Besides, the GI50 with BT-549 was > 10 µM (inactive); in the experiment with SNB-75, > 10 µM (inactive); in the experiment on T47D, > 10 µM (inactive); with HCT-15, 0.881 µM; in the experiment on OVCAR-3, > 10 µM (inactive); with CCRF-CEM it was > 10 µM (inactive). Also, the GI50 was 7.53 µM (inactive) in the experiment with NCI-H522; 3.1 µM (inactive) in the experiment on UO-31; 6.25 µM (inactive) in the experiment on SR; > 10 µM (inactive) in the experiment with MDA-MB-231; 3.48 µM (inactive) with Malme-3M; > 10 µM (inactive) in the experiment with EKVX.

As for `Cc1ccc(NC(=O)C23CC4CC(CC(C4)C2)C3)c(C(=O)NNC(=O)c2ccc(Cl)cc2)c1`, the GI50 with HOP-62 is 18.4 µM (inactive); with SK-OV-3, 15.8 µM (inactive); with SF-539, 18.1 µM (inactive); in the experiment with NCI-H226, 17 µM (inactive); in the experiment with COLO 205, 27.2 µM (inactive); in the experiment on LOX IMVI, 17 µM (inactive). The GI50 in the experiment on UACC-62 is 19.5 µM (inactive); in the experiment on BT-549 it was 35.9 µM (inactive); in the experiment on SNB-75, < 0.01 µM (active); in the experiment on T47D it was 18.3 µM (inactive); in the experiment on HCT-15 it was 17 µM; with OVCAR-3 it was 20.7 µM (inactive). Also, the GI50 with CCRF-CEM was 21.1 µM (inactive); in the experiment with NCI-H522 it was 12 µM (inactive); in the experiment with UO-31, 16.5 µM (inactive); in the experiment with SR, 13.7 µM (inactive); in the experiment with MDA-MB-231 it was 15.5 µM (inactive); in the experiment on Malme-3M, 18.3 µM (inactive). The GI50 with EKVX was 18.5 µM (inactive).
